Measurements from patent US11993581B2, “Pyridazine compounds for inhibiting Nav1.8” (Lieber Institute, Inc., priority 2018, dated 2024).

What follows are compounds tested against T1, human Nav1.8 (hNav1.8) ion channel (Homo sapiens, UniProt Q9Y5Y9) (assay: Nav1.8 inhibition, estimated IC50 (Nav1.8 fluorescence, PatchXpress and/or IonFlux HT automated patch clamp assay)). Conditions: HEK293 cells stably expressing hNav1.8; determined using one or more of the described methods; read-out: Activity range (estimated IC50).
T1 construct: expressed in transfected cells
T1 sequence (Q9Y5Y9 whole entry): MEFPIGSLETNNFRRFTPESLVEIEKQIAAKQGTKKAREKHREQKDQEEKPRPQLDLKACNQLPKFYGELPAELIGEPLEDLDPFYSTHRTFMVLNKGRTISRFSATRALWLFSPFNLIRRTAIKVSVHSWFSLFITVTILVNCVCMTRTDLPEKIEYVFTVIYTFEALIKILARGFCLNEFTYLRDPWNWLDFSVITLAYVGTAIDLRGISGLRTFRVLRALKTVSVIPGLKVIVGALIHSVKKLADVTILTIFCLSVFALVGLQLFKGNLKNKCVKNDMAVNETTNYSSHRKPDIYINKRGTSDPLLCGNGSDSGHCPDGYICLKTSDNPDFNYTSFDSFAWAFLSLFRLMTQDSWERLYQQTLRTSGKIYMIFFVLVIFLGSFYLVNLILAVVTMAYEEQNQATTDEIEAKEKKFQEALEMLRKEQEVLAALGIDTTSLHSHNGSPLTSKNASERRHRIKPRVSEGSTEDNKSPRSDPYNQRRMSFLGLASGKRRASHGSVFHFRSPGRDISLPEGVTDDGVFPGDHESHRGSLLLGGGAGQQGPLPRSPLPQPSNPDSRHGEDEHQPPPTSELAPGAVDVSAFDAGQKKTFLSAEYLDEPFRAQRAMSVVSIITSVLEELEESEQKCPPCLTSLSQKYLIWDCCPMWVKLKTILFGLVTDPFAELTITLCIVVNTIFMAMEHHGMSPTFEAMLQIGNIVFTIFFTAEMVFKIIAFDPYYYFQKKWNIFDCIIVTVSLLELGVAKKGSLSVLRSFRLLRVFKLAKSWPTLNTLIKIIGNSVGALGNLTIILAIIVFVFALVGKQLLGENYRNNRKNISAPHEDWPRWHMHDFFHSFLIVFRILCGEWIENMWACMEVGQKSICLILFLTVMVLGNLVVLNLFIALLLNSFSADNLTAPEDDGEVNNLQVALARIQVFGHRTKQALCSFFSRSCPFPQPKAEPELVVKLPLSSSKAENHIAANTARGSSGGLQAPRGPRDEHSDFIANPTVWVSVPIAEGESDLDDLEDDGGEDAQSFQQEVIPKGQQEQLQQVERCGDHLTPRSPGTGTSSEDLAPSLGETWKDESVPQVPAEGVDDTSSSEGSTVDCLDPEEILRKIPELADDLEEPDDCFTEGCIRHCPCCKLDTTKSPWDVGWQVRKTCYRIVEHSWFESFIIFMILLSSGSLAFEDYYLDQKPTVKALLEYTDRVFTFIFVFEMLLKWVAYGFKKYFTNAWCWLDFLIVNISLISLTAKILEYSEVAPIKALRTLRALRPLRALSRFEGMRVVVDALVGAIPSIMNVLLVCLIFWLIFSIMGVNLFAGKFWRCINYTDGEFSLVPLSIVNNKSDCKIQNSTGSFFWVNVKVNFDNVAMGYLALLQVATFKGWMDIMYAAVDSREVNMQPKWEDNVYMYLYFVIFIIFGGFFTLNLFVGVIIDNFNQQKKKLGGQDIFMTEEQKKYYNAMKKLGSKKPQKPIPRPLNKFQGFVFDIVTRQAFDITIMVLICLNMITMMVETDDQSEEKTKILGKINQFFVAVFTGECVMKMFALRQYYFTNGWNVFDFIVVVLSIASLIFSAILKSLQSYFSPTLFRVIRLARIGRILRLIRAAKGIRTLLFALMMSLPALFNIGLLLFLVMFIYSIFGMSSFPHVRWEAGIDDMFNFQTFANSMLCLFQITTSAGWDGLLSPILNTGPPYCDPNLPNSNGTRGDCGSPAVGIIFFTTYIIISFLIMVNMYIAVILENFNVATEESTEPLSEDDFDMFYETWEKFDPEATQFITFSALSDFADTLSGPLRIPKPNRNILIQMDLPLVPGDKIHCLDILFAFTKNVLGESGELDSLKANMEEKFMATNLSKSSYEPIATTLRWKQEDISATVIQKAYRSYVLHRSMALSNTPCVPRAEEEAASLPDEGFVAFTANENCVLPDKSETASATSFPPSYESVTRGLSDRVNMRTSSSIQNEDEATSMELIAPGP
T1 sequence (Q07699 19-218 partner): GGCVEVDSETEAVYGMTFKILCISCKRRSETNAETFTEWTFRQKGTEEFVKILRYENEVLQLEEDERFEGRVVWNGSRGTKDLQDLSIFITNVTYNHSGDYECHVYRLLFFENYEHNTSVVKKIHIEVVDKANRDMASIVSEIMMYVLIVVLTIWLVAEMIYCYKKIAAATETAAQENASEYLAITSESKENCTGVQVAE
Assay type: cell-based
Method: The ability of pyridine carboxamide derivatives exemplified above to inhibit the Nav1.8 channel was determined using one or more of the methods described below.
HEK Nav1.8 β1/β2 Stably Expressing Cell Line
A HEK293 cell line stably expressing the human Nav1.8 (hNav1.8) ion channel with β1/β2 subunits was constructed. The cell line is suitable for IC50 determination in fluorescence and electrophysiological based assays. It is also suitable to conduct mechanism of action pharmacology studies in electrophysiological assays. HEK293 Nav1.8 cells are grown as adherent monolayers in DMEM/high glucose media, 10% fetal bovine serum, Na pyruvate (2 mM), Hepes (10 mM) with selection agents G418 (400 mg/L) and puromycin (0.5 mg/L) at 37 degrees C., 10% CO2.
Nav1.8 Fluorescence Inhibition Assay
Compounds were made up to or supplied as a 10-mM stock solution using DMSO as the vehicle. Concentration-response curves were generated using a Matrix multichannel pipettor. Compound source plates were made by diluting 10 mM compound stocks to create 500 μM (100×) solutions in DMSO in 96-well v-bottom plates. Compounds were then serially diluted in 100% DMSO to generate a 5 point, 4-fold dilution scheme dose response curve. 2 μL of the 100× dose response curves were then added to preincubation and stimulation assay plates. 100 μL of pre-incubation buffer and 200 μl of stimulation buffer was then added to the plates resulting in a final assay test concentration range of 5 μM to 0.02 μM with a final DMSO concentration of 1%.
On the day of assay, plates were washed to remove cell culture media using 2K EBSS buffer (135 mM NaCl, 2 mM KCl, 5 mM Glucose, 2 mM CaCl2, 1 mM MgCl2, 10 mM HEPES, pH 7.4). The Na-sensitive fluorescent dye, Asante Natrium Green-2 (ANG-2) was incubated for 60 min to allow equilibration and then washed with 2K EBSS. Plates were then transferred to a fluorescence plate reader (FLIPR™, Molecular Devices) for fluorescence measurement using an excitation wavelength of 490 nm and an emission wavelength of 565 nm. Compounds were pre-incubated for 5 min at final test concentration in the presence of ouabain (30 μM) to inhibit Na+ efflux through Na+/K+ exchanger. Following the pre-incubation phase, hNav1.8 channels were stimulated with 10 μM of the pyrethroid deltamethrin to prevent channel inactivation. The assay was run for 15 minutes with vehicle and 30 μM tetracaine serving as negative and positive controls, respectively. The peak change in fluorescence relative to negative and positive control wells was calculated and fit with a logistic equation to determine IC50.
PatchXpress Nav1.8 Inhibition Assay
HEK-Nav1.8 β1/β2 cells were recorded in whole cell patch-clamp using the PatchXpress automated patch clamp platforms (Molecular Devices). Cell suspensions were obtained by trypsinization of adherent monolayers, followed by gentle rocking for minimally 30 min. Compounds were prepared from 10 mM DMSO stocks.
Nav1.8 channel variants were evaluated using Protocol 1 in which cells were initially voltage clamped at a holding potential of −100 mV to maintain Nav1.8 in a closed resting state. After current amplitude becomes stable, the mid-point voltage of steady state inactivation was determined for each cell using a series of 5 sec conditioning steps to increasingly depolarized voltages (−100 to 0 mV) The holding potential was then reset to a voltage that produces ˜50% inactivation (Vhalf-set automatically via PatchXpress scripts) so that closed and inactivated channel inhibition could be assessed. Protocol 1 was run at a frequency of 0.1 Hz until current amplitude is steady (automatically determined by PatchXpress scripts). The effect of test reagent on Nav current amplitude was monitored using custom PatchXpress stability scripts which determines the timing of compound addition and washout.
Data were processed and analyzed using DataXpress 2.0 (Molecular Devices). […]
`O=C(NCc1cccnc1N1CCOCC1)c1cnnc(-c2ccc(OCC3CCC3)c(Cl)c2)c1` [Example 44, 6-[3-chloro-4-(cyclobutylmethoxy)phenyl]-N-[(2-morpholino-3-pyridyl)methyl]pyridazine-4-carboxamide] gave an IC50 of under 500 nM. `COc1ncccc1CNC(=O)c1cnnc(-c2ccc(OCC3CC3)cc2)c1` [Example 48, 6-[4-(cyclopropylmethoxy)phenyl]-N-[(2-methoxy-3-pyridyl)methyl]pyridazine-4-carboxamide] showed an IC50 of over 1000 nM. `O=C(NCc1cccnc1N1CCCCC1)c1cnnc(-c2ccc(OCC3CC3)c(Cl)c2)c1` [Example 30, 6-[3-chloro-4-(cyclopropylmethoxy)phenyl]-N-[[2-(1-piperidyl)-3-pyridyl]methyl]pyridazine-4-carboxamide] showed an IC50 of under 500 nM. `N#Cc1ccc(-c2cc(C(=O)NCc3cc(F)cnc3N3CCOCC3)cnn2)cc1` [Example 53, 6-(4-cyanophenyl)-N-[(5-fluoro-2-morpholino-3-pyridyl)methyl]pyridazine-4-carboxamide] was tested, and the IC50 was 500 to 1000 nM. `CC(C)Oc1ncccc1CNC(=O)c1cnnc(-c2ccc(OCC3CC3)c(Cl)c2)c1` [Example 42, 6-[3-chloro-4-(cyclopropylmethoxy)phenyl]-N-[(2-isopropoxy-3-pyridyl)methyl]pyridazine-4-carboxamide] was tested, and the IC50 was under 500 nM. `Cc1ccnc(N2CCOCC2)c1CNC(=O)c1cnnc(-c2ccc(OC(F)(F)F)cc2)c1` [Example 59, N-[(4-methyl-2-morpholino-3-pyridyl)methyl]-6-[4-(trifluoromethoxy)phenyl]pyridazine-4-carboxamide] showed an IC50 of under 500 nM. `O=C(NCc1ccccc1N1CCOCC1)c1cnnc(-c2ccc(Cl)cc2)c1` [Example 55, 6-(4-chlorophenyl)-N-[(2-morpholinophenyl)methyl]pyridazine-4-carboxamide] showed an IC50 of under 500 nM. `O=C(NCc1cccnc1N1CCOCC1)c1cnnc(-c2cccc(Cl)c2)c1` [Example 3, 6-(3-chlorophenyl)-N-[(2-morpholino-3-pyridyl)methyl]pyridazine-4-carboxamide] showed an IC50 of 500 to 1000 nM. Work on `[2H]C1([2H])OC([2H])([2H])C([2H])([2H])N(c2ncccc2CNC(=O)c2cnnc(-c3ccc(OCC4CC4)c(Cl)c3)c2)C1([2H])[2H]` [Example 38, 6-[3-chloro-4-(cyclopropylmethoxy)phenyl]-N-[[2-(2,2,3,3,5,5,6,6-octadeuteriomorpholin-4-yl)-3-pyridyl]methyl]pyridazine-4-carboxamide] yielded an IC50 of under 500 nM. With `O=C(NCc1nccnc1N1CCOCC1)c1cnnc(-c2ccc(OCC3CC3)c(Cl)c2)c1` [Example 33, 6-[3-chloro-4-(cyclopropylmethoxy)phenyl]-N-[(3-morpholinopyrazin-2-yl)methyl]pyridazine-4-carboxamide] the IC50 was under 500 nM. `O=C(NCc1cccnc1N1CC2(COC2)C1)c1cnnc(-c2ccc(OCC3CC3)cc2)c1` [Example 52, 6-[4-(cyclopropylmethoxy)phenyl]-N-[[2-(2-oxa-6-azaspiro[3.3]heptan-6-yl)-3-pyridyl]methyl]pyridazine-4-carboxamide] showed an IC50 of over 1000 nM. `O=C(NCc1cccnc1N1CCOCC1)c1cnnc(-c2ccc(OCC3CC3)nc2)c1` [Example 16, 6-[6-(cyclopropylmethoxy)-3-pyridyl]-N-[(2-morpholino-3-pyridyl)methyl]pyridazine-4-carboxamide] gave an IC50 of under 500 nM. With `CC(C)Oc1ccc(-c2cc(C(=O)NCc3cccnc3N3CCOCC3)cnn2)cc1Cl` [Example 11, 6-(3-chloro-4-isopropoxy-phenyl)-N-[(2-morpholino-3-pyridyl)methyl]pyridazine-4-carboxamide] the IC50 was under 500 nM. In the case of `O=C(NCc1cncc(F)c1)c1cnnc(-c2ccc(OCC3CC3)c(Cl)c2)c1` [Example 40, 6-[3-chloro-4-(cyclopropylmethoxy)phenyl]-N-[(5-fluoro-3-pyridyl)methyl]pyridazine-4-carboxamide], the IC50 is reported as under 500 nM. For `CCCOc1ccc(-c2cc(C(=O)NCc3cccnc3N3CCOCC3)cnn2)cc1Cl` [Example 10, 6-(3-chloro-4-propoxy-phenyl)-N-[(2-morpholino-3-pyridyl)methyl]pyridazine-4-carboxamide], the IC50 was under 500 nM. `O=C(NCc1cc(F)cnc1N1CCOCC1)c1cnnc(-c2ccc(OCC3CC3)c(Cl)c2)c1` [Example 31, 6-[3-chloro-4-(cyclopropylmethoxy)phenyl]-N-[(5-fluoro-2-morpholino-3-pyridyl)methyl]pyridazine-4-carboxamide] was tested, and the IC50 was under 500 nM. `O=C(NCc1cccnc1N1CCOC(C(F)(F)F)C1)c1cnnc(-c2ccc(OCC3CC3)c(Cl)c2)c1` (stereo not drawn) [Example 39, 6-[3-chloro-4-(cyclopropylmethoxy)phenyl]-N-[[2-[2-(trifluoromethyl)morpholin-4-yl]-3-pyridyl]methyl]pyridazine-4-carboxamide] gave an IC50 of 500 to 1000 nM. `CC(C)COc1ccc(-c2cc(C(=O)NCc3cccnc3N3CCOCC3)cnn2)cc1` [Example 5, 6-(4-isobutoxyphenyl)-N-[(2-morpholino-3-pyridyl)methyl]pyridazine-4-carboxamide] was tested, and the IC50 was under 500 nM. `CN(C)c1ncccc1CNC(=O)c1cnnc(-c2ccc(OCC3CC3)c(Cl)c2)c1` [Example 28, 6-[3-chloro-4-(cyclopropylmethoxy)phenyl]-N-[[2-(dimethylamino)-3-pyridyl]methyl]pyridazine-4-carboxamide] gave an IC50 of under 500 nM. In the case of `N#Cc1ccc(-c2cc(C(=O)NCc3ccccc3N3CCOCC3)cnn2)cc1` [Example 58, 6-(4-cyanophenyl)-N-[(2-morpholinophenyl)methyl]pyridazine-4-carboxamide], the IC50 is reported as under 500 nM. Compound `O=C(NCc1cc(F)cnc1N1CCOCC1)c1cnnc(-c2ccc(OCC3CC3)cc2)c1` [Example 49, 6-[4-(cyclopropylmethoxy)phenyl]-N-[(5-fluoro-2-morpholino-3-pyridyl)methyl]pyridazine-4-carboxamide] has an IC50 of over 1000 nM. Work on `CCCOc1ccc(-c2cc(C(=O)NCc3cccnc3N3CCOCC3)cnn2)cc1F` [Example 13, 6-(3-fluoro-4-propoxy-phenyl)-N-[(2-morpholino-3-pyridyl)methyl]pyridazine-4-carboxamide] yielded an IC50 of under 500 nM. For `O=C(NCc1cncnc1N1CCOCC1)c1cnnc(-c2ccc(OCC3CC3)c(Cl)c2)c1` [Example 32, 6-[3-chloro-4-(cyclopropylmethoxy)phenyl]-N-[(4-morpholinopyrimidin-5-yl)methyl]pyridazine-4-carboxamide], the IC50 was over 1000 nM. Work on `O=C(NCc1cccnc1N1CCOCC1)c1cnnc(-c2ccc(OCC3CC3)c(F)c2)c1` [Example 46, 6-[4-(cyclopropylmethoxy)-3-fluoro-phenyl]-N-[(2-morpholino-3-pyridyl)methyl]pyridazine-4-carboxamide] yielded an IC50 of under 500 nM. Compound `O=C(NCc1cccnc1N1CCOCC1)c1cnnc(-c2ccc(OCC(F)(F)F)cc2)c1` [Example 7, N-[(2-morpholino-3-pyridyl)methyl]-6-[4-(2,2,2-trifluoroethoxy)phenyl]pyridazine-4-carboxamide] has an IC50 of under 500 nM. `Cc1ccnc(N2CCOCC2)c1CNC(=O)c1cnnc(-c2ccc(Cl)cc2)c1` [Example 60, 6-(4-chlorophenyl)-N-[(4-methyl-2-morpholino-3-pyridyl)methyl]pyridazine-4-carboxamide] showed an IC50 of under 500 nM. In the case of `O=C(NCc1cccnc1N1C[C@@H]2C[C@H]1CO2)c1cnnc(-c2ccc(OCC3CC3)c(Cl)c2)c1` [Example 34, 6-[3-chloro-4-(cyclopropylmethoxy)phenyl]-N-[[2-[(1S,4S)-2-oxa-5-azabicyclo[2.2.1]heptan-5-yl]-3-pyridyl]methyl]pyridazine-4-carboxamide], the IC50 is reported as under 500 nM.
